Laboratory results published in US20240383910A1, “SMALL MOLECULE BTK DEGRADERS AND METHODS OF USE THEREOF” (Baylor College of Medicine, priority 2023, published 2024).
Values joined by “and” are separate entries in the source; they are usually repeats but may differ in a detail not shown here. Equal entries are not always repeated. Where two headings read alike, the source gives them in different places.

Experiments:
BTK [1] = molecular target: T1, BTK (Homo sapiens, UniProt Q06187); assay: Western blotting for BTK in Ramos cells; assay type: cell-based; parameters: host or cells: Ramos; settings: Ramos cells, 40, 200 and 1000 nM, 24 h, Western blot
Experimental: (§1) CC-220 is a IKZF1/3 degrader developed by Celgene and used for comparison.
(§2) In contrast, PS-3, whose warhead is further reduced compared with PS-2, loses its ability to function as either a BTK degrader or a potent IKZF1/3 molecular glue. To confirm this observation, BTK degradation induced by PS-1, PS-2, and PS-3 was tested in both a human B lymphocyte cell line Ramos and mouse BALB/c B cell lymphoma line A20, with DD-03-171 from the Gray group as a positive control (FIG. 5).

MM.1S cells = assay: Alarma Blue cell viability assay, MM.1S cells; assay type: cell-based; settings: Homo sapiens, MM1.S, 120 h, read-out: IC50, cell growth inhibition
Description: (§3) Panel a. […] Panel b. […] Panel c. […] Panel d-e. […] Panel g.

His-BTK = molecular target: T2, His-BTK (Homo sapiens, UniProt Q06187); assay: TR-FRET competition binding assay with BTK-BODIPY tracer; settings: for binding to BTK (result in words): TRFRET assay, up to 100 μM; for IC50: TR-FRET, 2 nM His-BTK, 150 nM BTK-BODIPY tracer, 2 h incubation
T2 construct: purchased SignalChem B10-10H-10
Experimental: (§4) Panels a-b. […] Panel c. […] Panel d. […] Panel e. […] Panel f.
Time-resolved fluorescence resonance energy transfer (TR-FRET) assay was carried out to evaluate the binding of indicated compounds and BTK by competition with a BODIPY-FL labeled BTK tracer (See FIG. 1, BTK TR-FRET tracer). The assay was performed in 20 μL assay buffer (50 mM Tris, pH7.5, 0.1% Triton X-100, 0.01% BSA, and 1 mM DTT) with 0.3 nM Tb-anti-His (Cisbio, Cat. No. 61HI2TLA), 2 nM His-BTK (SignalChem, Cat. No. […] Unless specified otherwise, all assays were performed in triplicates. The assay mixtures were incubated at room temperature in the dark for 120 min, unless specified otherwise, and the signals were collected using a BioTek Synergy H1 microplate reader to measure the fluorescence emission ratio ([…]) of each well, using a 340-nm excitation filter, a 100-μs delay, and a 200-μs integration time. Raw data from the plate reader were used directly for analysis. The curve-fitting software GraphPad Prism 9 was used to generate graphs and curves and to determine IC50 values.
To measure the binding affinities between PROTACs and BTK, a time-resolved fluorescence resonance energy transfer (TR-FRET) competition binding assay was developed. A BTK tracer was synthesized by conjugating an ibrutinib-based reversible noncovalent binder with the BODIPY-FL dye (FIG. 1). […] In the presence of the BTK tracer, competition assays were performed to measure the binding affinities between BTK and its inhibitors and PROTACs. […] The very weak BTK binding affinities for PS-RC-1, PS-RC-2, PS-RC-3 and PS-RC-4 explain their minimal BTK degradation effects in cells and further support that the observed growth inhibitory effect of PS-RC-1 in Mino cells is unrelated to the BTK pathway.

BTK [2] = molecular target: T3, BTK (Mus musculus, UniProt P35991); assay: Western blotting for BTK in A20 cells; assay type: cell-based; settings: A20 cells, 40, 200 and 1000 nM, 24 h, Western blot
T3 construct: host or cells: A20
Experimental: as §1, §2

Mino cells [3] = assay: cells; settings: Homo sapiens, 72 h
Description: (§7) The cell viabilities were quantified using an Alarma Blue assay.
(§8) Dataset represents an average of n=3 replicates.

Mino cells [4] = settings: Mino cells pretreated with PS-RC-Ctrl 2 and 10 μM for 2 h
Description: as §7, §8

Rec-R cells = assay: Alarma Blue cell viability assay, Rec-R cells; assay type: cell-based; settings: 72 h
GSPT1 = molecular target: T4, GSPT1 (Homo sapiens, UniProt P15170+Q96SW2); assay: Western blotting for GSPT1 in Mino cells; assay type: cell-based; settings: up to 1000 nM, 24 h, Western blot
T4 construct: host or cells: Mino
Experimental: as §3
Mino cells were seeded into the wells of six-well plates at the density of 5×10^5 cells per mL in 2 mL of complete RPMI-1640 culture medium. After overnight adaptation, cells were treated with serially diluted compounds (from 1,000-1.6 nM, 5-fold dilution) for 24 hours. After treatment, whole cell lysates for immunoblotting were prepared by pelleting Mino cells at 4° C. and 200×g for 5 minutes. The resulting cell pellets were washed once with ice-cold PBS and lysed in 1×RIPA lysis buffer (Alfa Aesar, Cat. No. J62524) supplemented with protease and phosphatase inhibitor cocktail (Thermo Fisher, Cat. No. 78430). Lysates were centrifuged at 15,000×g for 10 min at 4° C. and protein concentrations were assessed using BCA assay (Pierce, Cat. No. 23225). Same amounts of protein (30 μg) for each sample were loaded onto sodium dodecyl sulfate-polyacrylamide gel, separated by electrophoresis (Bio-Rad) at 120 V for 1.5 h and transferred to PVDF membrane using a Transblot Turbo system (Bio-Rad). […] All Western blots were subsequently processed and quantified with Imager software ImageJ and protein level was normalized to the B-actin loading controls.

BTK [5] = molecular target: T1, BTK; assay: Western blotting for BTK in Mino cells; assay type: cell-based; parameters: host or cells: Mino; settings: up to 1000 nM, 24 h, Western blot
Experimental: Mino cells were seeded into the wells of six-well plates at the density of 5×10^5 cells per mL in 2 mL of complete RPMI-1640 culture medium. After overnight adaptation, cells were treated with serially diluted compounds (from 1,000-1.6 nM, 5-fold dilution) for 24 hours. After treatment, whole cell lysates for immunoblotting were prepared by pelleting Mino cells at 4° C. and 200×g for 5 minutes. The resulting cell pellets were washed once with ice-cold PBS and lysed in 1×RIPA lysis buffer (Alfa Aesar, Cat. No. J62524) supplemented with protease and phosphatase inhibitor cocktail (Thermo Fisher, Cat. No. 78430). Lysates were centrifuged at 15,000×g for 10 min at 4° C. and protein concentrations were assessed using BCA assay (Pierce, Cat. No. 23225). Same amounts of protein (30 μg) for each sample were loaded onto sodium dodecyl sulfate-polyacrylamide gel, separated by electrophoresis (Bio-Rad) at 120 V for 1.5 h and transferred to PVDF membrane using a Transblot Turbo system (Bio-Rad). After blocking for 1 h at room temperature in 1% BSA-TBST, the membranes were immunoblotted with the specified primary antibodies at the dilution of 1:1000 in TBST (Cell Signaling Technology: anti-BTK Cat. No. 8547, anti-IKZF1 Cat. No. 14859, anti-IKZF3 Cat. No. 15103, anti-β-actin Cat. No. 4570, Proteintech: anti-GSPT1, Cat. No. 10763-1-AP) overnight at 4° C. and the HRP-conjugated secondary antibodies (Cell Signaling, Cat. No. 7074, 1:1000 in TBST) for 1 h at room temperature. Imaging was performed using the ECL Prime chemiluminescent Western blot detection reagents (Kindle Biosciences, Cat. No. R1100) by visualization of the blots with an Imager (Kindle Biosciences, Cat. No. D1001). All Western blots were subsequently processed and quantified with Imager software ImageJ and protein level was normalized to the B-actin loading controls.

Jeko-1 cells = assay: Alarma Blue cell viability assay, Jeko-1 cells; assay type: cell-based; settings: 72 h
IKZF1 = molecular target: T5, IKZF1 (Homo sapiens, UniProt Q13422+Q96SW2); assay: Western blotting for IKZF1 in Mino cells; assay type: cell-based; settings: 24 h, Western blot, read-out: IKZF1-WB Endpoint Dmax
T5 construct: host or cells: Mino
Experimental: as §3
(§5) After treatment, whole cell lysates for immunoblotting were prepared by pelleting Mino cells at 4° C. and 200×g for 5 minutes. […] Imaging was performed using the ECL Prime chemiluminescent Western blot detection reagents (Kindle Biosciences, Cat. No. R1100) by visualization of the blots with an Imager (Kindle Biosciences, Cat. No. D1001). All Western blots were subsequently processed and quantified with Imager software ImageJ and protein level was normalized to the B-actin loading controls.

IKZF1-nLuc [6] = molecular target: T6, IKZF1-nLuc (Homo sapiens, UniProt Q13422+Q96SW2); assay: IKZF1-nLuc endpoint degradation assay in HEK-293T cells; assay type: cell-based; settings: HEK-293T, read-out: IKZF1-nLuc Endpoint Dmax
T6 construct: Addgene (vector) HsCD00512327; pLenti6.2-ccdB-Nanoluc 87078; host or cells: HEK-293T17
Experimental: as §3
(§6) The nanoluc activity was determined using the furimazine substrate (Promega, Cat. No. N1110). Briefly, after 4 h incubation of indicated compounds, cells were directly lysed by addition of 100 μL of nanoluciferase detection solution, containing lysis buffer and furimazine (1/50 dilution). For the 24-hour treatment group, the old medium was replaced with 100 μL fresh opti-MEM, followed by the addition of equal volume of lysis buffer plus furimazine (1/50 dilution).

IKZF3-nLuc [7] = molecular target: T7, IKZF3-nLuc (Homo sapiens, UniProt Q96SW2+Q9UKT9); assay: IKZF3-nLuc degradation kinetics assay in HEK-293T cells; assay type: cell-based; settings: HEK-293T, read-out: IKZF3-nLuc Degradation Kinetics Dmax
T7 construct: Addgene (vector) HsCD00513042; pLenti6.2-ccdB-Nanoluc 87078; host or cells: HEK-293T17
Description: as §3

IKZF3-nLuc [8] = molecular target: T7, IKZF3-nLuc; assay: IKZF3-nLuc endpoint degradation assay in HEK-293T cells; assay type: cell-based; settings: HEK-293T, read-out: IKZF3-nLuc Endpoint Dmax
Experimental: as §3, §6

IKZF3 = molecular target: T8, IKZF3 (Homo sapiens, UniProt Q96SW2+Q9UKT9); assay: Western blotting for IKZF3 in Mino cells; assay type: cell-based; settings: 24 h, Western blot, read-out: IKZF3-WB Endpoint Dmax
T8 construct: host or cells: Mino
Experimental: as §3, §5

IKZF1-nLuc [9] = molecular target: T6, IKZF1-nLuc; assay: IKZF1-nLuc degradation kinetics assay in HEK-293T cells; assay type: cell-based; settings: HEK-293T, read-out: IKZF1-nLuc Degradation Kinetics Dmax
Description: as §3

MOLM-14 cells = assay: Alarma Blue cell viability assay, MOLM14 cells; assay type: cell-based; settings: Homo sapiens, 72 h, read-out: IC50, cell growth inhibition
Description: as §4

T7 sequence (Q9UKT9 whole entry): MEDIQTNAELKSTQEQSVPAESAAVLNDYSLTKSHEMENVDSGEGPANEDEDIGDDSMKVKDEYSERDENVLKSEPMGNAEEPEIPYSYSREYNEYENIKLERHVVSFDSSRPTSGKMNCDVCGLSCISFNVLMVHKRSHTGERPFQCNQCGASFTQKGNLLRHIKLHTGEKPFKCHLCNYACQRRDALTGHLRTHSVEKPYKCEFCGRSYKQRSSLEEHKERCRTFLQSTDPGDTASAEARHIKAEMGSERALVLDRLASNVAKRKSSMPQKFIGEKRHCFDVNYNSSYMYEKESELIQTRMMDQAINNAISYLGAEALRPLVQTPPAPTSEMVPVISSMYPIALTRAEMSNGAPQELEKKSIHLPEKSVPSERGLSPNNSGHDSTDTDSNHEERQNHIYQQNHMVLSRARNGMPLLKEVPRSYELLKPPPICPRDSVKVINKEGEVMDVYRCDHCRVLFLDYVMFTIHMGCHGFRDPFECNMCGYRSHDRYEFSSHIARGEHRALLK
T7 sequence (Q96SW2 whole entry): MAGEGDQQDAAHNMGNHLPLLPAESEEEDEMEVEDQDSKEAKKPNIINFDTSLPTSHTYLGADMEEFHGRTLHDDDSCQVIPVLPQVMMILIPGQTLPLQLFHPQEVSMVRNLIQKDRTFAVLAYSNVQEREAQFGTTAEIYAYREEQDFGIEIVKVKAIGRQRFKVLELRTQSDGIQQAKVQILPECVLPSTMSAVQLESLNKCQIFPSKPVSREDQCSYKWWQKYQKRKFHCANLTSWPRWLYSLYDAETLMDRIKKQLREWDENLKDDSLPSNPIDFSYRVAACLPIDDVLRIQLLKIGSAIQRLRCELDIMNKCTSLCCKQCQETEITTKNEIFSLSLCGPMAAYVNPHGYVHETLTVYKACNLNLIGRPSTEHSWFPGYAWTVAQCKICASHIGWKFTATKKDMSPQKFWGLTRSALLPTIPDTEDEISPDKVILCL
T7 sequence (Q16531 whole entry partner): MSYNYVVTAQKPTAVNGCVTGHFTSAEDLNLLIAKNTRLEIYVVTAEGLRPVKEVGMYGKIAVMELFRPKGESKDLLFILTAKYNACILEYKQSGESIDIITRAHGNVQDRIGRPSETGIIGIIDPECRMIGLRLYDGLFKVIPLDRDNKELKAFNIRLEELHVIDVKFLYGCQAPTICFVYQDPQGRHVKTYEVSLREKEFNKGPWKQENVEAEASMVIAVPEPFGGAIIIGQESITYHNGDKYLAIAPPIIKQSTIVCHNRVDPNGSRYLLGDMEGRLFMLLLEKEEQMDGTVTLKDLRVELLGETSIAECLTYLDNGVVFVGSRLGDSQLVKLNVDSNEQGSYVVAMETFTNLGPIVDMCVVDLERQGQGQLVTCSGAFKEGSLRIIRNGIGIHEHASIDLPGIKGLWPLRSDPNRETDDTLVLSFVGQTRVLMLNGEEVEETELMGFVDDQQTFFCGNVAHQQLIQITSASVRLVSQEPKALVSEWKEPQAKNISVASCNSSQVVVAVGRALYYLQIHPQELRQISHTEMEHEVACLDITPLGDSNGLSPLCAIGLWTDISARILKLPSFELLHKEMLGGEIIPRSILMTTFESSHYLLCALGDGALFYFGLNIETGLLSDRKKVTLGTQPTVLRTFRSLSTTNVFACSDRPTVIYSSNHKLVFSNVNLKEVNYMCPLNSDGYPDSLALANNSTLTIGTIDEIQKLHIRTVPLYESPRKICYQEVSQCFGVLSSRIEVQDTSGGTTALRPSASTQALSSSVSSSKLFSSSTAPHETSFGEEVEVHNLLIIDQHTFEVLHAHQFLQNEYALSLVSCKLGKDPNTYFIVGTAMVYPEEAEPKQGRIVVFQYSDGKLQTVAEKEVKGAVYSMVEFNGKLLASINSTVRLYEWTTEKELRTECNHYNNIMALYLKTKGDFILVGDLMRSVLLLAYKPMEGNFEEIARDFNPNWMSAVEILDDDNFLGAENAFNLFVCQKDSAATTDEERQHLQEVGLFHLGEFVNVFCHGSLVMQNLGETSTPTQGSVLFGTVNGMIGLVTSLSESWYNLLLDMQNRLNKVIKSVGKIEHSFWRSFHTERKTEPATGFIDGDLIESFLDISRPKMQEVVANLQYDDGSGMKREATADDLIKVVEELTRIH
T2 sequence (Q06187 whole entry): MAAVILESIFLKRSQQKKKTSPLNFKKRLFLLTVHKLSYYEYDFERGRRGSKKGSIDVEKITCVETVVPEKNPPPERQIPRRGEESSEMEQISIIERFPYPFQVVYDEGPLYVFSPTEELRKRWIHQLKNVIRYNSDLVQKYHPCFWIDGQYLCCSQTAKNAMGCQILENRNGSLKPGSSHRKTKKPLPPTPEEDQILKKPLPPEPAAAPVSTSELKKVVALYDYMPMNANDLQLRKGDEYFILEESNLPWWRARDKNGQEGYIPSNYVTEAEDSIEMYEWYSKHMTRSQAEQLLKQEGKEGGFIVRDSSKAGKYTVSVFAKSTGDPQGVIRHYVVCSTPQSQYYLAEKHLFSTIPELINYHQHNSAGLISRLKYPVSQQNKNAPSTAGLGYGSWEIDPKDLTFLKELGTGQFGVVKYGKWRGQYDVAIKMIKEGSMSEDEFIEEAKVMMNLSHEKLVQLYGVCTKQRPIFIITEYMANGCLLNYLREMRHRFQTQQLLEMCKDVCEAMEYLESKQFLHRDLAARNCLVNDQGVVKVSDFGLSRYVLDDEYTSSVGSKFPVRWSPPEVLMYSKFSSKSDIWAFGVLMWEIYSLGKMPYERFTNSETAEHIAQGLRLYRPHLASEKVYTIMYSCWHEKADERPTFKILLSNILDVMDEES
T6 sequence (Q13422 whole entry): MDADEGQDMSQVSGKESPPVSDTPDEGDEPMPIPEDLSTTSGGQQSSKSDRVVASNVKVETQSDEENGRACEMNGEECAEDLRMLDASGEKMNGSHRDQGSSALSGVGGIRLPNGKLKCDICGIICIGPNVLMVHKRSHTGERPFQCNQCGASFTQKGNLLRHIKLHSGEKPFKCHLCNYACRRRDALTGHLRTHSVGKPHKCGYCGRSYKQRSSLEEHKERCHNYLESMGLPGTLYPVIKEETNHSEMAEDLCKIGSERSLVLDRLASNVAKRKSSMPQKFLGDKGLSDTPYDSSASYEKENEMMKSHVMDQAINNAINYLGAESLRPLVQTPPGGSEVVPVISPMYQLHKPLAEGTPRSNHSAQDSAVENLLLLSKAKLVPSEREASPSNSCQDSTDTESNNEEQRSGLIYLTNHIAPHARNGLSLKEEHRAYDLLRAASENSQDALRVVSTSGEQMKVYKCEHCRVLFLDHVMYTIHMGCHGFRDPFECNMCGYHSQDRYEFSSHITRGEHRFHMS
T6 sequence (Q96SW2 whole entry): as the sequence (Q96SW2 whole entry) above
T6 sequence (Q16531 whole entry partner): as the sequence (Q16531 whole entry partner) above
T1 sequence (Q06187 whole entry): as the sequence (Q06187 whole entry) above
T3 sequence (P35991 whole entry): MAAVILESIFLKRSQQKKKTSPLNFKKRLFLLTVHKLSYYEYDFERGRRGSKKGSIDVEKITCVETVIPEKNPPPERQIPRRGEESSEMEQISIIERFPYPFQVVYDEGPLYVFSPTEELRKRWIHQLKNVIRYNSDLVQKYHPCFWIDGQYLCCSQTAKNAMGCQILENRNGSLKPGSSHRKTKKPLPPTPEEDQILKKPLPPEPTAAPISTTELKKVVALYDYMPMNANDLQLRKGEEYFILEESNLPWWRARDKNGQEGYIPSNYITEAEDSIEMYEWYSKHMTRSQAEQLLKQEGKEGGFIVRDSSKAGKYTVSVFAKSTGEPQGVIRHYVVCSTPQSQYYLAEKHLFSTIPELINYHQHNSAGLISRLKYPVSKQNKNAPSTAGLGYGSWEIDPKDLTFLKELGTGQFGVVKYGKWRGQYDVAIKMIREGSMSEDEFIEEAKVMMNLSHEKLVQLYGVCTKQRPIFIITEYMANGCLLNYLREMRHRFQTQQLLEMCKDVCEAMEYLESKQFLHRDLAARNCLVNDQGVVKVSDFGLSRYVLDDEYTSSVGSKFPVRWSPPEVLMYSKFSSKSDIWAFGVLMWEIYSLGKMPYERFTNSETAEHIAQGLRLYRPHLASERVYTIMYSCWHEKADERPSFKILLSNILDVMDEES
T8 sequence (Q9UKT9 whole entry): as the sequence (Q9UKT9 whole entry) above
T8 sequence (Q96SW2 whole entry): as the sequence (Q96SW2 whole entry) above
T8 sequence (Q16531 whole entry partner): as the sequence (Q16531 whole entry partner) above
T4 sequence (P15170 whole entry): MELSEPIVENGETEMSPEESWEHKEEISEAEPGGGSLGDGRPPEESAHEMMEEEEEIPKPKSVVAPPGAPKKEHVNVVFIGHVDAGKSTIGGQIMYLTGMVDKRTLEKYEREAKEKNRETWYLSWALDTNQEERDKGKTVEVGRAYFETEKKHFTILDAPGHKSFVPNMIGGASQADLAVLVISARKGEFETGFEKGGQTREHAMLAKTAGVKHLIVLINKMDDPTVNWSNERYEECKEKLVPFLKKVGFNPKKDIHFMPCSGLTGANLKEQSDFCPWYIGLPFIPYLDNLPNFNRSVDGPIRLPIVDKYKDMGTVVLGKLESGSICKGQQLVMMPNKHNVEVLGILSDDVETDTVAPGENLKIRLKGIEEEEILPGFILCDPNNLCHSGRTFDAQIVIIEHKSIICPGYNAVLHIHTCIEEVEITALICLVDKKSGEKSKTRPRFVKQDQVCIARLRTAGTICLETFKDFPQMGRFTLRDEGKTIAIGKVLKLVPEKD
T4 sequence (Q96SW2 whole entry): as the sequence (Q96SW2 whole entry) above
T4 sequence (Q16531 whole entry partner): as the sequence (Q16531 whole entry partner) above
T5 sequence (Q13422 whole entry): as the sequence (Q13422 whole entry) above
T5 sequence (Q96SW2 whole entry): as the sequence (Q96SW2 whole entry) above
T5 sequence (Q16531 whole entry partner): as the sequence (Q16531 whole entry partner) above

In the case of O=C1CCC(N2C(=O)c3cccc(NCC(=O)N4CCN(c5ccc(Nc6nc(Oc7ccccc7)c7occc7n6)cc5)CC4)c3C2=O)C(=O)N1 (stereo not shown) [PS-1, 2-(2,6-Dioxopiperidin-3-yl)-4-((2-oxo-2-(4-(4-((4-phenoxyfuro[3,2-d]pyrimidin-2-yl)amino)phenyl)piperazin-1-yl)ethyl)amino)isoindoline-1,3-dione], the “BTK degradation (result in words)” value (BTK [1]) is reported as “very weak or no BTK degradation”, the IC50 (MM.1S cells) is reported as 3 nM and the “binding to BTK (result in words)” value (His-BTK) is reported as “almost no binding to BTK”. The “BTK degradation (result in words)” value (BTK [2]) was “very weak or no BTK degradation” and the IC50 (Mino cells [3]; read-out: IC50, cell growth inhibition / cell viability, Mino cells, 72 h) was 16 nM.
For CC(C)(C)/C=C(\C#N)C(=O)Nc1cccc(Oc2nc(Nc3ccc(N4CCN(C(=O)CNc5cccc6c5C(=O)N(C5CCC(=O)NC5=O)C6=O)CC4)cc3)nc3ccoc23)c1 (stereo not shown) [PS-RC-1, (E)-2-cyano-N-(3-((2-((4-(4-((2-(2,6-dioxopiperidin-3-yl)-1,3-dioxoisoindolin-4-yl)glycyl)piperazin-1-yl)phenyl)amino)furo[3,2-d]pyrimidin-4-yl)oxy)phenyl)-4,4-dimethylpent-2-enamide], the “IC50 shift upon PS-RC-Ctrl pre-treatment” value (Mino cells [4]) was “An appreciable IC50 shift was not observed”, the “response of cell growth to compound” value (Rec-R cells) was “poorly respond” and the “GSPT1 degradation (result in words)” value (GSPT1) was “does not degrade GSPT1”. The “BTK degradation (result in words)” value (BTK [5]) was “none of the tested PROTACs induce appreciable BTK degradation” and the “response of cell growth to compound” value (Jeko-1 cells) was “poorly respond”.
Compound Nc1cccc2c1C(=O)N(C1CCC(=O)NC1=O)C2=O (stereo not shown) [Pomalidomide, reference compound] has a Dmax (IKZF1) of 96%, a Dmax (IKZF1-nLuc [6]) of 90% and a Dmax at 0.04 µM (IKZF3-nLuc [7]) of 52%. The Dmax at 0.2 µM (IKZF3-nLuc [7]) was 64%, the “response of cell growth to compound” value (Rec-R cells) was “only Mino cells are responsive” and the Dmax (IKZF3-nLuc [8]) was 94%. It also gave a Dmax (IKZF3) of 96%, an IC50 (Mino cells [3]; read-out: IC50, cell growth inhibition / cell viability) of 329 nM and a Dmax at 0.04 µM (IKZF1-nLuc [9]) of 53%. The Dmax at 0.2 µM (IKZF1-nLuc [9]) was 80% and the “response of cell growth to compound” value (Jeko-1 cells) was “only Mino cells are responsive”.
With C=CC(=O)Nc1cccc(Oc2nc(Nc3ccc(N4CCN(C)CC4)cc3)nc3ccoc23)c1 [Poseltinib] the IC50 (MOLM-14 cells) was 2900 nM, the IC50 (His-BTK) was 1.21 nM and the IC50 (His-BTK; listed as poseltinib) was 1.1 nM and 1.2 nM. The “binding to BTK (result in words)” value (His-BTK) was “binding affinity in the nM range”.
